According to patent US8063104B2, “Guanidine derivatives as inhibitors of DDAH” (UCL Business PLC, priority 2004, dated 2011):
Where “and” joins values, the source holds several entries; their conditions need not be identical. Identical values can stand only once. Like-named read-outs stand apart in the source and are kept apart here. One block for each compound: values may come before it.

How the values were obtained:
[1] = molecular target: T1, DDAH (Rattus norvegicus, UniProt O08557); experiment: DDAH activity assay (rat kidney lysate, [14C]L-NMMA to [14C]citrulline); type: biochemical; conditions: 1 mM compound, [14C]L-NMMA 1 μmol/L, 1 h 37° C.
T1 construct: Rat kidney was homogenized in PBS; from tissue; host or cells: rat kidney homogenate, high-speed supernatant
T1 sequence (O08557 2-285 limits assumed): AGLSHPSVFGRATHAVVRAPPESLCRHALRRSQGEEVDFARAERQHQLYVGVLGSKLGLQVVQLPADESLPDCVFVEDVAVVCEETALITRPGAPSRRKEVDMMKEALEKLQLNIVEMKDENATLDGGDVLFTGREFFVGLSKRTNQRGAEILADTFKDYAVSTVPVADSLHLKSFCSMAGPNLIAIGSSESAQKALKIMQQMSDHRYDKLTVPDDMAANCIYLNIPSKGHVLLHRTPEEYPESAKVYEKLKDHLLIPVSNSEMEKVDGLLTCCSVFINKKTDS
Method: Rat kidney was homogenized in PBS containing PMSF 1 mM, leupeptin 5 μg/ml, pepstatin 5 μg/ml, chymostatin 5 μg/ml, and the lysate was centrifuged (4000 rpm. 20 min then supernatant further centrifuged for 40000 rpm, 30 min, 4° C.). The supernatants were analyzed for DDAH activity; [^14[…]) was added to the cell lysates (final volume 100 μl) and incubated for 1 h at 37° C. Dowex resin (0.5 ml) at neutral pH was immediately added to samples to terminate the reaction and bind unmetabolized L-NMMA. [^14C]Citrulline formation was determined by scintillation counting (Hewlett Packard).

[2] = molecular target: T2, iNOS (Mus musculus, UniProt P29477); experiment: iNOS activity Greiss assay in stimulated RAW cells; type: cell-based; conditions: Griess NOx, RAW cells stimulated 24 h with LPS/IFN and TNF, compound 0.5 mM, 550 nm; control 0.367 ± 0.021
T2 construct: endogenous in cells; host or cells: RAW cells stimulated with LPS/IFN and TNF
Method: RAW cells were stimulated for 24 h with LPS/IFN and TNF, in the presence of the DDAH inhibitor compounds (0.5 mM). Levels of NOx secreted into the media by the cells were determined by Griess assay: Greiss reagent [1:1 sulfanilamide ([…]) in ortho-phosphoric acid (50%) and N-(1-napthyl)ethylenediamine dihydrochloride (1%)] was added as 100 μl volume to 100 μl cell culture media and the plate was read at 550 nm and analysed in relation to sodium nitrite and nitrate standards.

[3] = system: eNOS; experiment: eNOS assay ([14C]arginine conversion); type: biochemical; conditions: eNOS activity
Method: Compounds to be tested were added to NOS assay buffer (HEPES 50 mM pH 7.2, FAD 5 μM, FMN 5 μM, BH4 10 μM, NADPH 1 mM, DTT 0.5 mM, CaCl2 1 mM, MgCl2 1 mM, calmodulin 50 nM, [^14C] arginine 100 μM) in a final volume of 100 μl and the reaction was initiated by addition of eNOS (eNOS 3.3. U/reaction, Alexis Biochemicals). Reactions were incubated for 1 h at 37° C. and the reaction was terminated by the addition of Dowex pH 5.5 (0.85 ml) to each tube. Tubes were vortexed and microfuged <12000 g, 5 min. 100 μl of the Dowex supernatant was added to 5 ml scintillation cocktail and was counted in a scintillation counter (Hewlett Packard). The compounds were tested at 1 mM and 0.1 mM concentrations. Activity is expressed as % of control where control contained no inhibitor, n=4. The DDAH inhibitors of the present invention tested had no significant effect on eNOS activity.

[4] = In vivo study: serum dimethylarginine levels after i.v. bolus; set-up: species or system Male Wistar rats; conditions: 4 hours after 60 mg/kg i.v. bolus, control 1.81 ± 0.23
Method: Male Wistar rats (250-300 g; Charles River, Margate, Kent, UK) were anaesthetised using Isoflurane. The jugular vein was cannulated. Animals were injected intravenously with a bolus dose of inhibitor (60 mg/kg) or saline. Anaesthesia was maintained for 4 hours at the end of which blood was obtained via cardiac puncture for the determination of serum dimethylarginine levels. [All animals received care in compliance with The British Home Office Regulations and Principles of Laboratory Animal Care. (Project licenses PPL/5344, PPL/4824, PPL 70/5580)]
SDMA is not a substrate for DDAH and the levels of SDMA would be expected to be the same of the treated and the control animals, and this was the case. Since there is a great deal of variability of the “normal” ADMA and SDMA level, it is useful to measure the ratio of ADMA and SDMA in each animal to provide a reliable indicator of the relative changes of these to substances.

[5] = system: rat aortic rings; experiment: NOx production from endotoxin-treated rat aortic rings in static culture; type: cell-based; conditions: endotoxin 10 μg/ml, compound 500 μM
Method: FIG. 1 is a graph showing the nitrate and nitrite (NOx) production from isolated rat aortic rings in static culture in the presence of either media alone (untreated); media plus 10 μg/ml LPS (LPS) and media plus 10 μg/ml LPS and 500 μM SR257 or SR291. n≧6; *p<0.0001 One Way ANOVA plus Bonferroni post hoc correction;
Effects of two compounds SR 291 [N^G-(2-methoxyethyl)-L-arginine methyl ester] and SR 257 [N^G-(2-methoxyethyl)-L-arginine]) have been tested in a series of models of endotoxin-induced vascular dysfunction. Treatment of rat aortic vascular rings in static culture with endotoxin (10 μg/ml) led to an increase in generation of nitric oxide (as measured by nitrite and nitrate). This increase in NO was prevented by treatment with 500 μM SR257 or SR291.

[6] = system: rat aortic rings; experiment: Endotoxin-induced hyporeactivity to vasoconstrictors in rat aortic rings; type: cell-based; conditions: endotoxin 0.3 μg/ml, compound 100 μM and 200 μM
Method: Incubation of rat aortic rings with endotoxin (0.3 μg/ml) led to the development of hyporeactivity to vasoconstrictors.

[7] = system: RAW cells; experiment: Cell viability assay (MTT) in RAW cells
Method: RAW cells were treated with DDAH inhibitor compound (0.5 mM) in complete media for 24 h; cells were subsequently assessed for viability by MTT assay. Cell culture media was removed from cells and replaced with 200 μl complete media containing 3-[4,5-Dimethylthiazol-2-yl]-2,5-diphenyltetrazolium bromide (MTT 0.2 mg/ml) for 30 min at 37° C. MTT containing media was removed and 100 ul DMSO was added to solubilize cells; after shaking, plates were read at OD550 nm.

[8] = system: zymosan-induced peritonitis; experiment: Zymosan-induced peritonitis, C57/Blk6 mice; type: in vivo
Method: (§1) The effects of a DDAH inhibitor on zymosan-induced peritonitis were tested in two different strains of mice. C57/Blk6 or TO mice, male 8-10 weeks were placed in a heat box for 10 mins at 38° C., and treated with 60 mg/kg of SR291 [NA-(2-methoxyethyl)-L-arginine methyl ester] i.v. 30 mins later they were given 1 mg of zymosan i.p. A second dose of SR291 (60 mg/kg) was administered 2 h later and after 4 h mice were anesthetised with isofluorane and blood withdrawn by cardiac puncture. Mice were sacrificed and had 2 mls of ice cold PBS injected into their peritoneal cavity, the cavity was then gently massaged and cut open, the peritoneal washout was harvested and put on ice. Blood was spun down at 400 g, 10 mins at 4° C. The cells were spun at 4000 rpm for 5 mins at 4° C. Plasma was removed from the blood and frozen at −80° C. The exudates from the washout were removed and frozen at −80° C., the cell pellet was resuspended in 1 ml ice cold PBS and were counted on a haemocytometer. The cells were spun as before, the supernatant discarded and the cells frozen at −80° C. Polymorphonuclear (PMN) cell infiltrate into the peritoneal cavity was used to measure inflammation. […] Taken off at 4 hrs. […] Taken off at 4 hrs.

[9] = system: zymosan-induced peritonitis; experiment: Zymosan-induced peritonitis, TO mice; type: in vivo; conditions: for cells 10^6/ml (individual animals 1-6): 60 mg/kg iv −30 min, +2 hrs, taken off at 4 hrs, listed as SR291, 60 mg/kg
Method: as §1

[10] = Endotoxin-induced fall in systemic blood pressure in anaesthetized rat; type: in vivo; conditions: endotoxin 40 mg/kg, infusion 30 mg/kg/hr
Method: Effects of intervention after 2-3 hours (when blood pressure had fallen to 80% of baseline pre LPS blood pressure) with 30 mg/kg/hr infusion of SR291; Injection of endotoxin (40 mg/kg) into rats caused a progressive fall in systemic BP. The decline was halted by infusion of 30 mg/kg/hr SR291.

inhibition at 1000 µM [1]: 100%
OD units drug ± sd [2]: 0.326 ± 0.014 OD units
SMILES: COCCN=C(N)NCCCC(N)C(=O)O [Example 21, N^G-(2-methoxyethyl)-L-arginine]
% of control ± sd ([3]; 0.1 mM compound): 96.84 ± 30.49 [2] % of control
% of control ± sd ([3]; 1 mM compound): 84.81 ± 22.74 [4] % of control
ADMA:SDMA ± sd [4]: 3.50 ± 0.48
endotoxin-induced increase in NO (nitrite and nitrate) [5]: prevented
endotoxin-induced hyporeactivity to vasoconstrictors [6]: reversed dose dependently
OD units drug ± sd ([7]; MTT, RAW cells, compound 0.5 mM, 24 h, OD550 nm, control 2.54 ± 0.26): 2.15 ± 0.13 OD units

inhibition at 1000 µM [1]: 83%
OD units drug ± sd [2]: 0.325 ± 0.009 OD units
SMILES: COCCN=C(N)NCCCC(N)C(=O)OC [Example 28, N^G-(2-Methoxyethyl)-L-arginine methyl ester]
% of control ± sd ([3]; 0.1 mM compound): 120.8 ± 17.80 [2] % of control
% of control ± sd ([3]; 1 mM compound): 112.5 ± 27.47 [4] % of control
ADMA:SDMA ± sd [4]: 2.73 ± 0.44
cells million/ml (peritoneal washout, individual animals 1-5) ([8]; C57 male 8-10 weeks, 60 mg/kg iv −30 min, taken off at 4 hrs, listed as SR291, 60 mg/kg): 3 million/ml and 4 million/ml and 4.5 million/ml and 6.5 million/ml and 9 million/ml
cells 10^6/ml, mean ([8]; combination of two datasets for the C57 mice, saline 6.7455): 4.2 10^6/ml
cells million/ml, mean ([8]; cumulative of Table 6 dataset, saline 9.1): 5.4 million/ml
PMN infiltrate into the peritoneal cavity ([8]; three separate experiments, 8-12 mice each, C57/Blk6 or TO mice, 60 mg/kg i.v.): significantly reduced
cells 10^6/ml (individual animals 1-6) ([9]; TO mice male 8-10 weeks, first study): 3.05 10^6/ml and 3.35 10^6/ml and 3.2 10^6/ml and 1.4 10^6/ml and 3.9 10^6/ml and 4.3 10^6/ml
cells 10^6/ml (individual animals 1-6) ([9]; TO mice, second study): 4.3 10^6/ml (2×) and 4.6 10^6/ml and 4.85 10^6/ml and 5.2 10^6/ml and 3.9 10^6/ml
cells 10^6/ml, mean ([9]; cumulative of Table 9 dataset, saline 4.783333): 3.2 10^6/ml
cells 10^6/ml, mean ([9]; cumulative of Table 11 dataset, saline 6.125): 4.525 10^6/ml
cells 10^6/ml, mean ([9]; cumulative of the two datasets of Tables 9 and 11, saline 5.454167): 3.8625 10^6/ml
endotoxin-induced increase in NO (nitrite and nitrate) [5]: prevented
endotoxin-induced hyporeactivity to vasoconstrictors [6]: reversed dose dependently
progressive fall in systemic BP [10]: halted
OD units drug ± sd [7]: 2.41 ± 0.10 OD units
